# Publication PMC12775434, “Ultra-large virtual screening unveils potent agonists of the neuromodulatory orphan receptor GPR139” (Nature Communications, 2025)
# Several values for one entry are separate records, joined by “and”; a condition that tells them apart may be missing. Equal entries are not always repeated. Where two headings read alike, the source gives them in different places.
# Assays:
# Format in all cases: cell-based
# [1] = target: T1, GPR139 (Homo sapiens, UniProt Q6DWJ6); test: Ca2+ mobilization assay, agonist mode, stable GPR139-CHOk1 cell line; conditions: for Emax: normalized to Lundbeck Cmp 1a, read-out: Emax (%) Ca2+; for change in potency with larger substituents on the thiophene ring: Ca2+ mobilization
# T1 sequence (Q6DWJ6 1-353): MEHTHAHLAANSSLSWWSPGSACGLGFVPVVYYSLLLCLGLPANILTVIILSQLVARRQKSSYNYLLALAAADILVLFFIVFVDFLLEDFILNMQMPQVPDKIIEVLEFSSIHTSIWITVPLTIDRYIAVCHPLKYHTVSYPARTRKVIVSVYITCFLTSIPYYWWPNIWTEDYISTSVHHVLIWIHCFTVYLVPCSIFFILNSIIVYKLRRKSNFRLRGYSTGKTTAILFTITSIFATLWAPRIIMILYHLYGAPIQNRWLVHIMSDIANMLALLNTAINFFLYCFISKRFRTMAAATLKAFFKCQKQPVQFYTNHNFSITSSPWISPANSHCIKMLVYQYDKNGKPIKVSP
# How it was run: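 Agonist activity of compounds is assessed in stably transfected CHO-K1 cells using the calcium dye Fluo-4 at 37 °C in HEPES-buffered HBSS (pH 7.4). Efficacy is expressed relative to the reference agonist Lundbeck Cmp 1a, set as 100%.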
# [2] = target: T1, GPR139; test: Ca2+ mobilization assay, antagonist mode (EC80 800 nM Lundbeck Cmp 1a after 20 min preincubation), GPR139-CHOk1; conditions: individual replicates (Supplementary Figure 4)
# How it was run: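 Fluo-4-loaded GPR139-CHOk1 cells in HEPES-buffered HBSS (pH 7.4, 2.5 mM probenecid) given test compounds at 10 µM, then after 20 min challenged with 800 nM Lundbeck Cmp 1a (EC80). Calcium fluorescence read at 37 °C, 485/525 nm.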
# [3] = target: T2, human muscarinic acetylcholine M1 receptor (M1R) (Homo sapiens, UniProt P11229); test: Ca2+ mobilization counter-screen in M1R-CHOk1 cells; conditions: individual replicates (Supplementary Figure 5)
# T2 sequence (P11229 1-460): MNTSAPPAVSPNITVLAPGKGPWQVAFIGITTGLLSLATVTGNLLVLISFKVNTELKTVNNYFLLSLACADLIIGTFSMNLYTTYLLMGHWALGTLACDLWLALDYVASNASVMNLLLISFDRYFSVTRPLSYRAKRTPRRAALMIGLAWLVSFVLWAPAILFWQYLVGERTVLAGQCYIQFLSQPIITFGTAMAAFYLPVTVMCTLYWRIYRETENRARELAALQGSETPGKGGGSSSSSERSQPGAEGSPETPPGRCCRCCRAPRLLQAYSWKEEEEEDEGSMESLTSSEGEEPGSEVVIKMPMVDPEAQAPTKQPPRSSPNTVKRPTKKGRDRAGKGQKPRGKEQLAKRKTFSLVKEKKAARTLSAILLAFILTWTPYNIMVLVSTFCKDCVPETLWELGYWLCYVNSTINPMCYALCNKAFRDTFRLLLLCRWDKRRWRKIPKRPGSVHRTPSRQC
# Description: Primary screening and pharmacological characterization of compounds were performed using a CHO-K1 cell line that stably expresses human GPR139 (GPR139-CHOk1). The GPR139-CHOk1 cell line was kindly provided by H. Lundbeck A/S, Denmark[24]. GPR139-CHOk1 cells were grown in Ham’s F-12 Kaighn’s Modification Medium (ThermoFisher #21127030) supplemented with 10% dialyzed fetal bovine serum (US origin, ThermoFisher #26400044), 100 units/mL Penicillin-Streptomycin (ThermoFisher #15140122), and 1 mg/mL Geneticin (ThermoFisher #11811031). […] M1R-CHOk1 cells were purchased from The Missouri S&T cDNA Resource Center (#CEM100TN00). M1R-CHOk1 cells were grown in Ham’s F12 Medium (ThermoFisher #21765029) supplemented with 10% fetal bovine serum (Brazilian origin, ThermoFisher #10270106), 100 units/mL Penicillin-Streptomycin, and 0.25 mg/mL Geneticin. HEK293A cells transiently transfected with GPR139 were used for additional pharmacological assessment of signaling pathways activated by GPR139. HEK239A cells were generously provided by Dr. Asuka Inoue, Tohoku University, Japan. HEK293A cells were grown in Dulbecco’s Modified Eagle Medium (ThermoFisher #31966047) supplemented with 10% dialyzed fetal bovine serum and 100 units/mL Penicillin-Streptomycin. Cell lines were maintained at 37 °C in humidified incubator equilibrated with 5% CO2.
# 30,000 GPR139- or M1R-CHOk1 cells/well were seeded in black clear bottom tissue culture treated 96-well plates (Greiner #655090) and grown for 20–24 h. Cells were washed with HEPES buffer (Hank’s Balanced Salt Solution (HBBS) supplemented with 20 mM HEPES, 1 mM MgCl2, and 1 mM CaCl2; pH 7.4). Cells were loaded with 50 µL of 2 µM Fluo-4 AM dye (ThermoFisher #F14202) in HEPES buffer supplemented with 2.5 mM probenecid and 0.01% Pluronic F-68 (ThermoFisher #24040032) for 1 h at 37 °C. Cells were washed with HEPES buffer. 50 µL HEPES buffer supplemented with 2.5 mM probenecid was added, and the cells were incubated for 10 min at 37 °C before measurement. 50 µL test compounds diluted in HEPES buffer from DMSO stocks (final DMSO concentration of maximally 0.3%) were added automatically after baseline measurements. The intracellular calcium mobilization was measured on a FlexStation 3 Multimode Microplate Reader (Molecular Devices) at 37 °C with filters for excitation of 485 nm and emission of 525 nm.
# [4] = Agonist mode, individual replicates (Supplementary Figure 4)
# [5] = Supplementary Table 2, mean ± SEM
# [6] = log [Compound] M = -4.5, individual replicate columns
# [7] = log [Compound] M = -5.0, individual replicate columns
# [8] = log [Compound] M = -5.5, individual replicate columns
# [9] = log [Compound] M = -6.0, individual replicate columns
# [10] = log [Compound] M = -6.5, individual replicate columns
# [11] = log [Compound] M = -7.0, individual replicate columns
# [12] = log [Compound] M = -7.5, individual replicate columns
# [13] = log [Compound] M = -8.0, individual replicate columns
# [14] = log [Compound] M = -8.5, individual replicate columns
# [15] = log [Compound] M = -9.0, individual replicate columns
# [16] = Supplementary Table 2, mean ± SEM, read-out: pEC50 Ca2+ (converted)
Compound,"Ca2+ signal (% of Cmp 1a) [1, 4]","EC50 ([1]; GPR139-CHOk1, read-out: EC50, Ca2+ mobilization)","Emax [1, 5]","Ca2+ signal (% of Cmp 1a) [1, 6]","Ca2+ signal (% of Cmp 1a) [1, 7]","Ca2+ signal (% of Cmp 1a) [1, 8]","Ca2+ signal (% of Cmp 1a) [1, 9]","Ca2+ signal (% of Cmp 1a) [1, 10]","Ca2+ signal (% of Cmp 1a) [1, 11]","Ca2+ signal (% of Cmp 1a) [1, 12]","Ca2+ signal (% of Cmp 1a) [1, 13]","Ca2+ signal (% of Cmp 1a) [1, 14]","Ca2+ signal (% of Cmp 1a) [1, 15]",Ca2+ signal (% of Cmp 1a) [2],Ca2+ signal (% of Carbachol) [3],change in potency with larger substituents on the thiophene ring [1],"EC50 [1, 16]"
"Cc1cccc(-c2nc(CC(=O)NC(C)c3ccccc3)no2)c1 (centres unmarked) [Compound 1.3, CC(C1=CC=CC=C1)NC(CC2=NOC(C3=CC(C)=CC=C3)=N2)=O]",106 % of Cmp 1a and 102 % of Cmp 1a and 119 % of Cmp 1a,100 nM,109 ± 6%,95 % of Cmp 1a and 109 % of Cmp 1a and 110 % of Cmp 1a and 97 % of Cmp 1a,91 % of Cmp 1a (2×) and 123 % of Cmp 1a and 104 % of Cmp 1a,80 % of Cmp 1a and 126 % of Cmp 1a and 100 % of Cmp 1a and 85 % of Cmp 1a,76 % of Cmp 1a and 101 % of Cmp 1a and 90 % of Cmp 1a and 71 % of Cmp 1a,55 % of Cmp 1a and 89 % of Cmp 1a and 72 % of Cmp 1a and 60 % of Cmp 1a,36 % of Cmp 1a and 68 % of Cmp 1a and 56 % of Cmp 1a and 52 % of Cmp 1a,12 % of Cmp 1a and 48 % of Cmp 1a (2×) and 34 % of Cmp 1a,5.33 % of Cmp 1a and 18 % of Cmp 1a and 26 % of Cmp 1a and 21 % of Cmp 1a,5 % of Cmp 1a and 3.67 % of Cmp 1a and 12 % of Cmp 1a and 9 % of Cmp 1a,-3 % of Cmp 1a and 12 % of Cmp 1a and 5.67 % of Cmp 1a and 8 % of Cmp 1a,13 % of Cmp 1a and 0.333 % of Cmp 1a and -11 % of Cmp 1a,24 % of Carbachol and -2 % of Carbachol and 12 % of Carbachol,–,–
"Cc1c(-c2nc(CC(=O)NC(C)c3ccccc3)no2)sc2nccn12 (centres unmarked) [Compound 1.21, CC(C1=CC=CC=C1)NC(CC2=NOC(C3=C(C)N4C=CN=C4S3)=N2)=O]",51 % of Cmp 1a and 103 % of Cmp 1a and 63 % of Cmp 1a,–,88 ± 6%,99 % of Cmp 1a and 106 % of Cmp 1a and 96 % of Cmp 1a and 82 % of Cmp 1a and 98 % of Cmp 1a,106 % of Cmp 1a and 89 % of Cmp 1a and 74 % of Cmp 1a and 87 % of Cmp 1a and 93 % of Cmp 1a,113 % of Cmp 1a and 82 % of Cmp 1a and 55 % of Cmp 1a and 93 % of Cmp 1a and 79 % of Cmp 1a,58 % of Cmp 1a and 46 % of Cmp 1a and 13 % of Cmp 1a and 61 % of Cmp 1a and 35 % of Cmp 1a,30 % of Cmp 1a and 22 % of Cmp 1a and -9 % of Cmp 1a and 34 % of Cmp 1a and 9 % of Cmp 1a,11 % of Cmp 1a and 3.59 % of Cmp 1a and -6 % of Cmp 1a and 13 % of Cmp 1a and 2 % of Cmp 1a,-0.321 % of Cmp 1a and 1.12 % of Cmp 1a and 16 % of Cmp 1a and 9 % of Cmp 1a and 1.36 % of Cmp 1a,-0.311 % of Cmp 1a and 5 % of Cmp 1a and 16 % of Cmp 1a and 8 % of Cmp 1a and 4 % of Cmp 1a,-0.779 % of Cmp 1a and 5.49 % of Cmp 1a and -3.74 % of Cmp 1a and 4.43 % of Cmp 1a and 2.79 % of Cmp 1a,6.41 % of Cmp 1a and 9 % of Cmp 1a and -8 % of Cmp 1a and 7.41 % of Cmp 1a and -0.105 % of Cmp 1a,8 % of Cmp 1a and 24 % of Cmp 1a and 21 % of Cmp 1a,-6 % of Carbachol and -2 % of Carbachol and -1.22 % of Carbachol,three-fold reduction to a complete loss of activity,1260 nM
"CC(=O)c1ccc(-c2nc(CC(=O)NC(C)c3ccccc3)no2)s1 (centres unmarked) [Compound 1.28, CC(C1=CC=CC=C1)NC(CC2=NOC(C3=CC=C(C(C)=O)S3)=N2)=O]",64 % of Cmp 1a and 62 % of Cmp 1a and 50 % of Cmp 1a,–,66 ± 3%,66 % of Cmp 1a and 68 % of Cmp 1a and 55 % of Cmp 1a and 56 % of Cmp 1a and 59 % of Cmp 1a,77 % of Cmp 1a and 66 % of Cmp 1a and 55 % of Cmp 1a and 46 % of Cmp 1a and 59 % of Cmp 1a,54 % of Cmp 1a and 43 % of Cmp 1a and 37 % of Cmp 1a and 21 % of Cmp 1a and 29 % of Cmp 1a,23 % of Cmp 1a and 21 % of Cmp 1a and 9 % of Cmp 1a and 3.16 % of Cmp 1a and 14 % of Cmp 1a,6.51 % of Cmp 1a and 1.59 % of Cmp 1a and -12 % of Cmp 1a and -2.27 % of Cmp 1a and -4.37 % of Cmp 1a,-1.28 % of Cmp 1a and 2.34 % of Cmp 1a and -6.44 % of Cmp 1a and 7 % of Cmp 1a and -2 % of Cmp 1a,0.626 % of Cmp 1a and 6.36 % of Cmp 1a and -9 % of Cmp 1a and -0.267 % of Cmp 1a and 3 % of Cmp 1a,-4.49 % of Cmp 1a and 4.31 % of Cmp 1a and -8 % of Cmp 1a and 1.18 % of Cmp 1a and -3.25 % of Cmp 1a,-6.33 % of Cmp 1a and -0.329 % of Cmp 1a and -3.24 % of Cmp 1a and -1.55 % of Cmp 1a and -1.43 % of Cmp 1a,-6.38 % of Cmp 1a and -2.27 % of Cmp 1a and -10 % of Cmp 1a and -4 % of Cmp 1a and 1.43 % of Cmp 1a,19 % of Cmp 1a and 58 % of Cmp 1a and 22 % of Cmp 1a,-12 % of Carbachol and -1.79 % of Carbachol and -4.4 % of Carbachol,three-fold reduction to a complete loss of activity,2510 nM
